“Also recorded” adds a separate entry of the source.
Experiments:
[1] = test system: sympathetic nerves of heart and kidney; assay: tonic and reflectorial bioelectric activity in sympathetic nerves of heart and kidney; type: in vivo; settings: cats
Source text: In experiments on anesthetized (urethane+chloralose) and immobilized (succinylcholine bromide) cats (14 tests) there has been studied the effect of the preparation in various doses on the tonic and reflectorial bioelectric activity in sympathetic nerves of heart and kidney. Somatosympathetic reflexes are caused by electric irritation of afferent A- and C- fibers of the tibial nerve.

[2] = test system: rats; assay: chronical toxicity in rats, intraperitoneal; type: in vivo
[3] = test system: vessels of heart, kidney and limbs; assay: resistogram of vessels of heart, kidney and limbs; type: in vivo
Source text: To find out the participance of the vascular factor in redistribution of regional blood flow, resistogram of vessels of heart, kidney and limbs has been recorded. […] The effect of the preparation on the heart activity and basic characteristics of hemodynamics has been also studied.

[4] = acute toxicity on rats; settings: rat, in vivo
Source text: (§1) The acute toxicity of the preparation according to the present invention has been studied on mice and rats.

[5] = test system: coronary blood flow; assay: rate of coronary blood flow and oxygen absorption by myocardium in anesthetized cats; type: in vivo
Protocol: At the same time, the content of oxyhemoglobin in the coronary venous blood is determined by the photometrical method and the absorption of oxygen by myocardium is calculated on the basis of the arterio-venous difference value.
The effect duration varies within the range of from 5 to 10 minutes. With increasing the preparation dose up to 500 mg/kg, the intensity and duration of the effect are increased reaching respectively 108±12% and 30-40 minutes.
Calculation of the amount of the heart-absorbed oxygen points to it explicit increase (29±2.3%).

[6] = test system: ischemic zone of myocardium; assay: model of acute attack of stenocardia (Sekeresh's model) in anesthetized dogs; type: in vivo
Source text: The effect of the preparation on the functional state of the ischemic center has been studied in experiments on dogs under the conditions of general anesthesia. The effects caused by the preparation have been studied on the model of an acute attack of stenocardia (Sekeresh's model). The functional state of the ischemic focus has been assessed through analysis of epicardial heart electrograms in the ischemic zone and adjacent regions. The stenocardiac attack is caused by way of a partial occlusion of the coronary artery (left descending artery) and including a high rhythm of heart contractions (up to 250 beats/minute) by way of electrical stimulation of the heart auricula. Under these conditions there take place changes of the heart electrograms typical for acute ischemia of myocardium.

[7] = test system: systemic arterial pressure; assay: effect on arterial pressure in cats and dogs; type: in vivo
Protocol: The effect of the preparation on the arterial pressure has been also studied. […] The average value of the maximum drop of pressure during the first 10 minutes after the administration is 8-10% of the initial level. In doses of 500 mg/kg the preparation causes hypotensive reaction with the intensity of 15-18% of the initial level at the duration of the effect of 20-30 minutes.

[8] = test system: cardio-vascular effects; assay: overall cardiovascular effects / conclusions of the tests; settings: in vivo
Source text: The results of the above-described tests allow the following conclusions characterizing the properties of the medicated compound according to the present invention.

[9] = test system: patients suffering from ischemic heart disease; assay: clinical test in patients with ischemic heart disease; type: in vivo, human patients
Protocol: There were studied 84 patients aged 29 to 77 (46 men and 38 women) suffering from ischemic heart disease.
The patients with ischemic heart disease were classified by stages: stage 1-18 persons, stage 2-40 persons, stage […] (according to L. I. Fogelson, 1972). In 46 patients there was the attendant hypertonic disease of the second stage.
The remoteness of the disease was varied from 6 months to 22 years. The preparation was administered perorally in doses of 0.6-0.9 g 3-4 times a day. The daily dose is 1.8-3.6 g. The treatment course was 7 to 60 days; after a 5-7 days' interval the treatment was resumed depending on its efficiency so that the total course duration was up to 6 months. The effectiveness of the treatment was evaluated by the dynamics of complaints, clinic chart, objective data of pulse and arterial pressure, electrocardiographic and biochemical characteristics.

[10] = test system: blood flow in aorta; assay: volumetric blood flow in the ascending aortic arch, anesthetized cats and dogs; type: in vivo; settings: 200-500 mg/kg intravenously
Source text: In experiments on cats and dogs under the general anesthesia conditions the volumetric flow rate of blood flow in the ascending part of the aortic arch has been recorded by the electromagnetic method using an electromagnetic blood flow meter and vessel sensors of appropriate size. On the basis of analysis of the phase curve of the blood flow, the main characteristics of heart activity and hemodynamics have been calculated. […] The averaged data of analysis of phase curves of the blood flow in cat's aorta under general anesthesia conditions (8 tests) are given in the Table hereinbelow.

[11] = solubility in water; type: physicochemical; settings: white crystalline powder
[12] = acute toxicity on mice; type: in vivo; settings: mouse, in vivo
Source text: as §1

[13] = test system: mice; assay: acute toxicity on mice; type: in vivo
Source text: as §1

[14] = intraperitoneal 200 mg/kg for 6 months and 1,000 mg/kg for 1 month
[15] = 50 mg/kg intravenously, cats and dogs
[16] = patients with attendant hypertonic disease

CN1C(=O)N(C)C2C1N(C)C(=O)N2C (centres unmarked) [the preparation, 2,4,6,8-tetramethyl-2,4,6,8-tetraazobicyclo-/3,3,0/-octanedione-3,7]
pressor responses caused by tetanic irritation of tibial nerve ([1]; 50 mg/kg): remain unchanged
tonic and reflectorial activity in sympathetic nerves ([1]; 50 mg/kg): does not noticeably change the character and intensity of tonic and reflectorial activity in sympathetic nerves
spontaneous activity and reflectorial responses ([1]; 50 mg/kg, in a certain number of the experiments): slight amplification of spontaneous activity and facilitation of reflectorial responses
C-responses of the reflectorial discharges ([1]; 250-500 mg/kg): suppressed
inhibiting component of the reflectorial response ([1]; 250-500 mg/kg): amplification of the inhibiting component of the reflectorial response
tonic activity in sympathetic nerves ([1]; 250-500 mg/kg): weakly inhibited
accumulation [2, 14]: not accumulated
effect on hematoplasty and urination [2, 14]: does not affect hematoplasty and urination
histological changes in the visceral organs ([2]; kidney, liver, spleen, heart and the like, intraperitoneal 200 mg/kg 6 months, 1,000 mg/kg 1 month): no pathological changes in the visceral organs
tension of vessels ([3]; heart, kidney and limbs): monodirectionally lowers tension of all vessels
resistance of coronary vessels versus peripheral vessels ([3]; in vivo): lowered to a greater extent than that of peripheral vessels
LD50 [4]: 3450 mg/kg
arterio-venous difference relative to oxygen [5]: lowering the arterio-venous difference relative to oxygen; also recorded: decrease in the arterio-venous difference relative to oxygen
content of oxyhemoglobin in coronary venous blood [5]: increased content of oxyhemoglobin in coronary venous blood
increase of coronary blood flow versus absorption of oxygen by myocardium [5]: surpasses the absorption of oxygen by myocardium
increase of coronary blood flow ([5]; 50 mg/kg intravenously, average): 32±5%
duration of coronary blood flow effect ([5]; 500 mg/kg): 30 to 40 min
increase of coronary blood flow ([5]; 500 mg/kg): 108±12%
increase of the amount of the heart-absorbed oxygen ([5]; calculated from arterio-venous difference): 29±2.3%
ischemic changes of epicardial electrograms in the zone of ischemia ([6]; 200 mg/kg, dogs): inhibited the development of ischemic changes of epicardial electrograms in the zone of ischemia
blood inflow into the ischemic zone (retrograde blood flow) ([6]; dogs): considerably increase the blood inflow into the ischemic zone
activity compared with nonachlazine (sum of pharmacological effects) ([6]; experimental model of acute myocardium ischemia): more active (as regards the sum of pharmacological effects) than the known preparation nonachlazine
arterial pressure reaction during the first 5 minutes [7, 15]: uncertain hypertensive reaction
effect on the systemic arterial pressure [7, 15]: no essential effect on the systemic arterial pressure
changes of the arterial pressure ([7]; 250 mg/kg, cats and dogs): opposite-sign changes of the arterial pressure mainly of hypotensive character
average value of the maximum drop of pressure ([7]; 250 mg/kg, first 10 minutes after administration, cats and dogs): 8-10 % of the initial level
duration of the hypotensive effect ([7]; 500 mg/kg, cats and dogs): 20 to 30 min
hypotensive reaction intensity ([7]; 500 mg/kg, cats and dogs): 15-18 % of the initial level
influence on the adrenoreactive structures of the vessels ([7]; dog, in vivo): does not influence the adrenoreactive structures of the vessels
depressor reactions on isoproterenol ([7]; isoproterenol 2.5 μg/kg): does not change the character
pressor reactions of arterial pressure on noradrenaline ([7]; noradrenaline 3 μg/kg): does not change the character
arterial pressure [8]: no substantial change of arterial pressure
colateral blood flow in deep (endocardial) layers of myocardium [8]: contributes to the development of the colateral blood flow in deep (endocardial) layers of myocardium
contractibility of myocardium (inotropic effect) [8]: positive inotropic effect; also recorded: increases contractibility of myocardium
frequency of heart contractions [8]: without affecting the frequency of heart contractions
functional state of the ischemic centre [8]: capable of improving functional state of the ischemic centre; also recorded: capable of improve the functional state of the ischemic centre
lactate in the blood outflowing from the ischemic zone [8]: lowering the content of lactate in the blood outflowing from the ischemic zone
sympathetic tonus of heart and vessels [8]: capable of inhibiting the sympathetic tonus of heart and vessels
vascular component of pain reactions [8]: capable of inhibiting the sympathetic tonus of heart and vessels, as well as vascular components of pain reactions; also recorded: suppresses the vascular component of pain reactions
volumetric rate of total coronary blood flow [8]: increases the volumetric rate of total coronary blood flow
potassium in plasma ([9]; after treatment, before 3.82±0.16): 3.45±0.08 mequiv/l
number of erythrocytes ([9]; after treatment, before 4.6±0.3): 5.3±0.3 mln in mm^3
content of total protein ([9]; after treatment, before 7.73±0.1%): 8.65±0.25%
content of lymphocytes ([9]; after treatment, before 26.9±1.2%): 31.0±2.8%
potassium in erythrocytes ([9]; after treatment, before 65.7±5.7): 80.2±5.2 mequiv/l
hemoglobin ([9]; after treatment, before 82.7±2.6%): 86.3±3.2%
cholesterol ([9]; after treatment, before 294.0±16.4%): 245±15.0 mg %
leucocytes ([9]; after treatment, before 5,520±499): 6,080±221 in mm^3
content of prothrombin ([9]; during the treatment course): not changed
content of sodium in erythrocytes and plasma ([9]; human, in vivo): not substantially changed
contraindications ([9]; human, in vivo): No contraindications against the administration of the preparation have been revealed
patients with good therapeutic effect ([9]; human, in vivo): 77 % of the patients
remaining fractions of proteinogram ([9]; human, in vivo): insignificant opposite-sign variations
side effects ([9]; human, in vivo): Side effects are absent
day at which amelioration of the condition was observed [9, 16]: 2 to 5 days
pulse [9, 16]: pulse normalization
minimal arterial pressure ([9]; patients with attendant hypertonic disease, after treatment, before 102.2±1.2): 89.7±4.0 mm Hg
maximum arterial pressure ([9]; patients with attendant hypertonic disease, after treatment, before 180.8±3.9): 161.4±3.8 mm Hg
electrogram ([9]; perorally 1.8-3.6 g daily): rhythm normalization
frequency and intensity of stenocardia attacks ([9]; perorally 1.8-3.6 g daily): reduced
metabolic processes ([9]; perorally 1.8-3.6 g daily): amelioration of metabolic processes
gamaglobulins ([9]; proteinogram, after treatment, before 19.87±1.83%): 22.54±2.31%
duration of increased blood flow in aorta [10]: 30 to 40 min
increase of blood flow in aorta [10]: 50-70%
tachycardia [10]: uncertainly pronounced tachycardia
solubility in water [11]: well soluble in water
LD50 [12]: 3800 mg/kg
LD50 [13]: 3,800 mg/kg of the body weight

— US4571403A, “Antianginal medicated compound” (Institut Organicheskoi Khimii Imeni N.D. Zelinskogo …, priority 1984, dated 1986)
